The NIST ThermoML archive (doi:10.1021/je0601356)
Several values for one entry are separate records, joined by “and”; a condition that tells them apart may be missing. Equal values may be shown once.

Conditions: Liquid, Vibrating wire viscometry

CC(F)(F)F [1,1,1-trifluoroethane]
Conditions | viscosity
273.21 K, 4960 kPa | 0.1724 mPa·s
273.21 K, 5010 kPa | 0.172 mPa·s
273.21 K, 5030 kPa | 0.1723 mPa·s
273.21 K, 7780 kPa | 0.1804 mPa·s
273.21 K, 7800 kPa | 0.1805 mPa·s
273.21 K, 7810 kPa | 0.1806 mPa·s
273.21 K, 7900 kPa | 0.1803 mPa·s
273.21 K, 7960 kPa | 0.1805 mPa·s
273.21 K, 9530 kPa | 0.1854 mPa·s
273.21 K, 9540 kPa | 0.1852 mPa·s
273.21 K, 9580 kPa | 0.1856 mPa·s
273.21 K, 9610 kPa | 0.1851 mPa·s
273.21 K, 9770 kPa | 0.185 mPa·s
273.21 K, 9880 kPa | 0.1853 mPa·s
283.22 K, 1240 kPa | 0.1416 mPa·s
283.22 K, 1260 kPa | 0.1418 mPa·s
283.22 K, 1470 kPa | 0.1416 mPa·s
283.22 K, 1510 kPa | 0.1424 mPa·s
283.22 K, 1530 kPa | 0.1424 mPa·s
283.22 K, 1570 kPa | 0.1429 mPa·s
283.22 K, 1900 kPa | 0.1433 mPa·s
283.22 K, 1930 kPa | 0.1433 mPa·s
283.22 K, 1950 kPa | 0.1432 mPa·s
283.22 K, 1970 kPa | 0.144 mPa·s
283.22 K, 2000 kPa | 0.1435 mPa·s
283.22 K, 2050 kPa | 0.1442 mPa·s
283.22 K, 3700 kPa | 0.1495 mPa·s
283.22 K, 3720 kPa | 0.1496 mPa·s
283.22 K, 3850 kPa | 0.1497 mPa·s
283.22 K, 5130 kPa | 0.1537 mPa·s
283.22 K, 5220 kPa | 0.1543 mPa·s
283.22 K, 5260 kPa | 0.1536 mPa·s and 0.154 mPa·s
283.22 K, 7400 kPa | 0.1615 mPa·s
283.22 K, 7500 kPa | 0.161 mPa·s
283.22 K, 7540 kPa | 0.1607 mPa·s
283.22 K, 9720 kPa | 0.1679 mPa·s
283.22 K, 9780 kPa | 0.1678 mPa·s
283.22 K, 9940 kPa | 0.168 mPa·s
283.22 K, 10050 kPa | 0.1678 mPa·s
293.17 K, 1370 kPa | 0.1253 mPa·s
293.17 K, 1390 kPa | 0.1255 mPa·s
293.17 K, 1400 kPa | 0.1252 mPa·s
293.17 K, 1420 kPa | 0.1256 mPa·s
293.17 K, 1430 kPa | 0.1258 mPa·s and 0.1256 mPa·s
293.17 K, 1440 kPa | 0.1258 mPa·s
293.17 K, 1850 kPa | 0.1268 mPa·s
293.17 K, 1860 kPa | 0.1266 mPa·s
293.17 K, 1890 kPa | 0.1271 mPa·s
293.17 K, 1920 kPa | 0.1267 mPa·s
293.17 K, 1940 kPa | 0.127 mPa·s
293.17 K, 3820 kPa | 0.1333 mPa·s
293.17 K, 3830 kPa | 0.1336 mPa·s
293.17 K, 3850 kPa | 0.1337 mPa·s
293.17 K, 3860 kPa | 0.1335 mPa·s
293.17 K, 3870 kPa | 0.1333 mPa·s
293.17 K, 3890 kPa | 0.1335 mPa·s and 0.1336 mPa·s
293.17 K, 4900 kPa | 0.1378 mPa·s
293.17 K, 4920 kPa | 0.1377 mPa·s
293.17 K, 4960 kPa | 0.138 mPa·s
293.17 K, 4970 kPa | 0.138 mPa·s
293.17 K, 5010 kPa | 0.1381 mPa·s
293.17 K, 7450 kPa | 0.1448 mPa·s
293.17 K, 7490 kPa | 0.1446 mPa·s
293.17 K, 7520 kPa | 0.145 mPa·s
293.17 K, 7550 kPa | 0.1449 mPa·s
293.17 K, 7560 kPa | 0.1449 mPa·s
293.17 K, 7590 kPa | 0.1451 mPa·s
293.17 K, 7620 kPa | 0.1453 mPa·s
293.17 K, 9740 kPa | 0.1507 mPa·s
293.17 K, 9770 kPa | 0.1506 mPa·s
293.17 K, 9820 kPa | 0.1507 mPa·s
293.17 K, 9880 kPa | 0.151 mPa·s
293.17 K, 9970 kPa | 0.1511 mPa·s
293.17 K, 10070 kPa | 0.1517 mPa·s
